In patent US10533000B2, “Metabotrophic glutamate receptor 5 modulators and methods of use thereof” (Sunovion Pharmaceuticals, Inc., priority 2011, dated 2020):

Target: mGluR5 (Homo sapiens, UniProt P41594)
Experiment: mGluR5 positive allosteric modulator (PAM) functional assay
Type: cell-based

Sequence of mGluR5 (P41594 21-1212): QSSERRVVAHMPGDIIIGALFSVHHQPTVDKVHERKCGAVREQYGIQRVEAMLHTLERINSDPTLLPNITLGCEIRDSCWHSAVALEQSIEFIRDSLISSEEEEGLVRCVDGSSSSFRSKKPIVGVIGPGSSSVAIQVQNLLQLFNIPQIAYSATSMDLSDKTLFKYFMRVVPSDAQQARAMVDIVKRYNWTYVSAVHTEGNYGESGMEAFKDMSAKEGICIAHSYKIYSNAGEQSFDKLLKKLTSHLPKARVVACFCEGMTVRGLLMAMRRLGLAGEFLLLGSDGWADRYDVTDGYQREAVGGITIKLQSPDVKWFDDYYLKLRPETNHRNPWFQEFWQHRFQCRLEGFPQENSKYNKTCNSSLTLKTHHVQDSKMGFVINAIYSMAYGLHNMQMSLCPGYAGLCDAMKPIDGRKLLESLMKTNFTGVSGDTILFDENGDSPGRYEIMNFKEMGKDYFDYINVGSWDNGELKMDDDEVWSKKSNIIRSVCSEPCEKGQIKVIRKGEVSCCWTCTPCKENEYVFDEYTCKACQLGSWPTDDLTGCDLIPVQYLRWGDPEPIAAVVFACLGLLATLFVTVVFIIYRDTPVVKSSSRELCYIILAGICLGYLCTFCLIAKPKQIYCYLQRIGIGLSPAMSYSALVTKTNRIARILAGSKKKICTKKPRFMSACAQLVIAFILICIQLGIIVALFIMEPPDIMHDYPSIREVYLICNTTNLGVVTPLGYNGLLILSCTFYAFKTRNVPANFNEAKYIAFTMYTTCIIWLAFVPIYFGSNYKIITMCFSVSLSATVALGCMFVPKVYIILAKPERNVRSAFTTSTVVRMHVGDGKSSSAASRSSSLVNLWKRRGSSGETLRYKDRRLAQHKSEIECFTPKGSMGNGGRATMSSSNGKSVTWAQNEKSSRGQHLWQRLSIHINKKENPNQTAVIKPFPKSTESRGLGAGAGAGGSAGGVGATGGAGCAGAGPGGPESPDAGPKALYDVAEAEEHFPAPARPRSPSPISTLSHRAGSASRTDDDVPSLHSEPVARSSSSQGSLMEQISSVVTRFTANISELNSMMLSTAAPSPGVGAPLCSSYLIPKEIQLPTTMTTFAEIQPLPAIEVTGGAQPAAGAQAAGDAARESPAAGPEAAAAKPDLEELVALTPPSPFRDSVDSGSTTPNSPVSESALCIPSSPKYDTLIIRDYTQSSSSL

EC50 | SMILES
100 to 300 nM | CCC(C)c1nc(-c2ccc(C#Cc3ccncc3)cc2)no1 (stereo not drawn) [Compound 71, 5-(sec-butyl)-3-(4-(pyridin-4-ylethynyl)phenyl)-1,2,4-oxadiazole]
≤ 30 nM | COC(C)c1nc(-c2ccc(C#Cc3ccncc3)cc2)no1 (stereo not drawn) [Compound 74, 5-(1-methoxyethyl)-3-(4-(pyridin-4-ylethynyl)phenyl)-1,2,4-oxadiazole]
30 to 100 nM | CCC(CC)c1nc(-c2ccc(C#Cc3ccncc3)cc2)no1 [Compound 75, 5-(pentan-3-yl)-3-(4-(pyridin-4-ylethynyl)phenyl)-1,2,4-oxadiazole]
30 to 100 nM | CCC(OC)c1nc(-c2ccc(C#Cc3ccncc3)cc2)no1 (stereo not drawn) [Compound 76, 5-(1-methoxypropyl)-3-(4-(pyridin-4-ylethynyl)phenyl)-1,2,4-oxadiazole]
100 to 300 nM | C(#Cc1ccc(-c2noc(C3CCCN3)n2)cc1)c1ccncc1 (stereo not drawn) [Compound 77, 3-(4-(pyridin-4-ylethynyl)phenyl)-5-(pyrrolidin-2-yl)-1,2,4-oxadiazole]
≤ 30 nM | CN1CCCC1c1nc(-c2ccc(C#Cc3ccncc3)cc2)no1 (stereo not drawn) [Compound 78, 5-(1-methylpyrrolidin-2-yl)-3-(4-(pyridin-4-ylethynyl)phenyl)-1,2,4-oxadiazole]
100 to 300 nM | CNC(C)c1nc(-c2ccc(C#Cc3ccncc3)cc2)no1 (stereo not drawn) [Compound 79, N-methyl-1-(3-(4-(pyridin-4-ylethynyl)phenyl)-1,2,4-oxadiazol-5-yl)ethanamine]
≤ 30 nM | CC(c1nc(-c2ccc(C#Cc3ccncc3)cc2)no1)N(C)C (stereo not drawn) [Compound 80, N,N-dimethyl-1-(3-(4-(pyridin-4-ylethynyl)phenyl)-1,2,4-oxadiazol-5-yl)ethanamine]
300 to 1000 nM | CCC(C)c1nc(-c2ccc(C#Cc3cccnc3)cc2)no1 (stereo not drawn) [Compound 81, 5-(sec-butyl)-3-(4-(pyridin-3-ylethynyl)phenyl)-1,2,4-oxadiazole]
30 to 100 nM | CCC(C)c1nc(-c2ccc(C#Cc3cccc(F)c3)nc2)no1 (stereo not drawn) [Compound 82, 5-(sec-butyl)-3-(6-((3-fluorophenyl)ethynyl)pyridin-3-yl)-1,2,4-oxadiazole]
100 to 300 nM | Fc1cccc(C#Cc2ccc(-c3noc(C4CCCC4)n3)cn2)c1 [Compound 83, 5-cyclopentyl-3-(6-((3-fluorophenyl)ethynyl)pyridin-3-yl)-1,2,4-oxadiazole]
30 to 100 nM | COC(C)c1nc(-c2ccc(C#Cc3cccc(F)c3)nc2)no1 (stereo not drawn) [Compound 84, 3-(6-((3-fluorophenyl)ethynyl)pyridin-3-yl)-5-(1-methoxyethyl)-1,2,4-oxadiazole]
≤ 30 nM | CCC(OC)c1nc(-c2ccc(C#Cc3cccc(F)c3)nc2)no1 (stereo not drawn) [Compound 85, 3-(6-((3-fluorophenyl)ethynyl)pyridin-3-yl)-5-(1-methoxypropyl)-1,2,4-oxadiazole]
30 to 100 nM | CCC(C)c1nc(-c2ccc(C#Cc3ccccn3)nc2)no1 (stereo not drawn) [Compound 86, 5-(sec-butyl)-3-(6-(pyridin-2-ylethynyl)pyridin-3-yl)-1,2,4-oxadiazole]
≤ 30 nM | CCC(CC)c1nc(-c2ccc(C#Cc3ccccn3)nc2)no1 [Compound 87, 5-(pentan-3-yl)-3-(6-(pyridin-2-ylethynyl)pyridin-3-yl)-1,2,4-oxadiazole]
300 to 1000 nM | CCC(OC)c1nc(-c2ccc(C#Cc3ccccn3)nc2)no1 (stereo not drawn) [Compound 89, 5-(1-methoxypropyl)-3-(6-(pyridin-2-ylethynyl)pyridin-3-yl)-1,2,4-oxadiazole]
≤ 30 nM | CCC(C)c1nc(-c2ccc(C#Cc3ccncc3)nc2)no1 (stereo not drawn) [Compound 90, 5-(sec-butyl)-3-(6-(pyridin-4-ylethynyl)pyridin-3-yl)-1,2,4-oxadiazole]
≤ 30 nM | CCC(CC)c1nc(-c2ccc(C#Cc3ccncc3)nc2)no1 [Compound 91, 5-(pentan-3-yl)-3-(6-(pyridin-4-ylethynyl)pyridin-3-yl)-1,2,4-oxadiazole]
100 to 300 nM | COC(C)c1nc(-c2ccc(C#Cc3ccncc3)nc2)no1 (stereo not drawn) [Compound 92, 5-(1-methoxyethyl)-3-(6-(pyridin-4-ylethynyl)pyridin-3-yl)-1,2,4-oxadiazole]
30 to 100 nM | CCC(OC)c1nc(-c2ccc(C#Cc3ccncc3)nc2)no1 (stereo not drawn) [Compound 93]
≤ 30 nM | CCC(C)c1nc(-c2ccc(C#Cc3cccc(F)c3)cn2)no1 (stereo not drawn) [Compound 94, 5-(sec-butyl)-3-(5-((3-fluorophenyl)ethynyl)pyridin-2-yl)-1,2,4-oxadiazole]
≤ 30 nM | Fc1cccc(C#Cc2ccc(-c3noc(C4CCCC4)n3)nc2)c1 [Compound 95, 5-cyclopentyl-3-(5-((3-fluorophenyl)ethynyl)pyridin-2-yl)-1,2,4-oxadiazole]
≤ 30 nM | COC(C)c1nc(-c2ccc(C#Cc3cccc(F)c3)cn2)no1 (stereo not drawn) [Compound 96, 3-(5-((3-fluorophenyl)ethynyl)pyridin-2-yl)-5-(1-methoxyethyl)-1,2,4-oxadiazole]

EC50 | SMILES
≤ 30 nM | CCC(OC)c1nc(-c2ccc(C#Cc3cccc(F)c3)cn2)no1 (stereo not drawn) [Compound 97, 3-(5-((3-fluorophenyl)ethynyl)pyridin-2-yl)-5-(1-methoxypropyl)-1,2,4-oxadiazole]
30 to 100 nM | Fc1cccc(C#Cc2ccc(-c3noc(C4COCCN4)n3)nc2)c1 (stereo not drawn) [Compound 98]
300 to 1000 nM | CC(C)(C)OC(=O)N1CCC1c1nc(-c2ccc(C#Cc3cccc(F)c3)cn2)no1 (stereo not drawn) [Compound 99, tert-butyl 2-(3-(5-((3-fluorophenyl)ethynyl)pyridin-2-yl)-1,2,4-oxadiazol-5-yl)azetidine-1-carboxylate]
30 to 100 nM | CN1CCC1c1nc(-c2ccc(C#Cc3cccc(F)c3)cn2)no1 (stereo not drawn) [Compound 101, 3-(5-((3-fluorophenyl)ethynyl)pyridin-2-yl)-5-(1-methylazetidin-2-yl)-1,2,4-oxadiazole]
300 to 1000 nM | CNCc1nc(-c2ccc(C#Cc3cccc(F)c3)cn2)no1 [Compound 102, 1-(3-(5-((3-fluorophenyl)ethynyl)pyridin-2-yl)-1,2,4-oxadiazol-5-yl)-N-methylmethanamine]
30 to 100 nM | CN(C)Cc1nc(-c2ccc(C#Cc3cccc(F)c3)cn2)no1 [Compound 103, 1-(3-(5-((3-fluorophenyl)ethynyl)pyridin-2-yl)-1,2,4-oxadiazol-5-yl)-N,N-dimethylmethanamine]
100 to 300 nM | CC(c1nc(-c2ccc(C#Cc3cccc(F)c3)cn2)no1)N(C)C (stereo not drawn) [Compound 104, 1-(3-(5-((3-fluorophenyl)ethynyl)pyridin-2-yl)-1,2,4-oxadiazol-5-yl)-N,N-dimethylethanamine]
30 to 100 nM | C[C@H](c1nc(-c2ccc(C#Cc3cccc(F)c3)cn2)no1)N(C)C [Compound 105, (R)-1-(3-(5-((3-fluorophenyl)ethynyl)pyridin-2-yl)-1,2,4-oxadiazol-5-yl)-N,N-dimethylethanamine]
≤ 30 nM | C[C@@H](c1nc(-c2ccc(C#Cc3cccc(F)c3)cn2)no1)N(C)C [Compound 106, (S)-1-(3-(5-((3-fluorophenyl)ethynyl)pyridin-2-yl)-1,2,4-oxadiazol-5-yl)-N,N-dimethylethanamine]
30 to 100 nM | CNC(C)c1nc(-c2ccc(C#Cc3cccc(F)c3)cn2)no1 (stereo not drawn) [Compound 107, 1-(3-(5-((3-fluorophenyl)ethynyl)pyridin-2-yl)-1,2,4-oxadiazol-5-yl)-N-methylethanamine]
≤ 30 nM | CC(c1nc(-c2ccc(C#Cc3cccc(F)c3)cn2)no1)N1CCCC1 (stereo not drawn) [Compound 108, 3-(5-((3-fluorophenyl)ethynyl)pyridin-2-yl)-5-(1-(pyrrolidin-1-yl)ethyl)-1,2,4-oxadiazole]
≤ 30 nM | CC(NC1CC1)c1nc(-c2ccc(C#Cc3cccc(F)c3)cn2)no1 (stereo not drawn) [Compound 109, N-(1-(3-(5-((3-fluorophenyl)ethynyl)pyridin-2-yl)-1,2,4-oxadiazol-5-yl)ethyl)cyclopropanamine]
30 to 100 nM | CC(C)NC(C)c1nc(-c2ccc(C#Cc3cccc(F)c3)cn2)no1 (stereo not drawn) [Compound 110, N-(1-(3-(5-((3-fluorophenyl)ethynyl)pyridin-2-yl)-1,2,4-oxadiazol-5-yl)ethyl)propan-2-amine]
≤ 30 nM | CCN(CC)C(C)c1nc(-c2ccc(C#Cc3cccc(F)c3)cn2)no1 (stereo not drawn) [Compound 111, N,N-diethyl-1-(3-(5-((3-fluorophenyl)ethynyl)pyridin-2-yl)-1,2,4-oxadiazol-5-yl)ethanamine]
≤ 30 nM | CNC(C)(C)c1nc(-c2ccc(C#Cc3cccc(F)c3)cn2)no1 [Compound 112, 2-(3-(5-((3-fluorophenyl)ethynyl)pyridin-2-yl)-1,2,4-oxadiazol-5-yl)-N-methylpropan-2-amine]
≤ 30 nM | CN(C)C(C)(C)c1nc(-c2ccc(C#Cc3cccc(F)c3)cn2)no1 [Compound 113, 2-(3-(5-((3-fluorophenyl)ethynyl)pyridin-2-yl)-1,2,4-oxadiazol-5-yl)-N,N-dimethylpropan-2-amine]
100 to 300 nM | CCC(N)c1nc(-c2ccc(C#Cc3cccc(F)c3)cn2)no1 (stereo not drawn) [Compound 114, 1-(3-(5-((3-fluorophenyl)ethynyl)pyridin-2-yl)-1,2,4-oxadiazol-5-yl)propan-1-amine]
30 to 100 nM | CCC(NC)c1nc(-c2ccc(C#Cc3cccc(F)c3)cn2)no1 (stereo not drawn) [Compound 115, 1-(3-(5-((3-fluorophenyl)ethynyl)pyridin-2-yl)-1,2,4-oxadiazol-5-yl)-N-methylpropan-1-amine]
≤ 30 nM | CCC(c1nc(-c2ccc(C#Cc3cccc(F)c3)cn2)no1)N(C)C (stereo not drawn) [Compound 116, 1-(3-(5-((3-fluorophenyl)ethynyl)pyridin-2-yl)-1,2,4-oxadiazol-5-yl)-N,N-dimethylpropan-1-amine]
≤ 30 nM | CCC(NC1CC1)c1nc(-c2ccc(C#Cc3cccc(F)c3)cn2)no1 (stereo not drawn) [Compound 117, N-(1-(3-(5-((3-fluorophenyl)ethynyl)pyridin-2-yl)-1,2,4-oxadiazol-5-yl)propyl)cyclopropanamine]
≤ 30 nM | CN(C)C1(c2nc(-c3ccc(C#Cc4cccc(F)c4)cn3)no2)CC1 [Compound 118, 1-(3-(5-((3-fluorophenyl)ethynyl)pyridin-2-yl)-1,2,4-oxadiazol-5-yl)-N,N-dimethylcyclopropanamine]
300 to 1000 nM | Fc1cccc(C#Cc2ccc(-c3noc(C4CCCN4)n3)nc2)c1 (stereo not drawn) [Compound 119, 3-(5-((3-fluorophenyl)ethynyl)pyridin-2-yl)-5-(pyrrolidin-2-yl)-1,2,4-oxadiazole]
